Results on three compounds are retold here after patent US12582660B2, “Inhibitors of the RAS oncoprotein, methods of making and methods of use thereof” (University of Louisville Research Foundation, Inc., priority 2018, dated 2026).

Entries after “also recorded” stand apart in the source; their conditions may differ.

One may read the Kd as the constant that tells how readily two partners part at equilibrium.

Data set [1] relates to Mia-Paca-2 (Pancreatic cancer) xenograft tumors. Briefly: Tumor inhibition of xenografts, Mia-Paca-2. The class given is in vivo, NRG mice. As to conditions: Mia-Paca-2 xenograft; 12 mg/kg every three days; P value 0.014. As for the experimental part: (§1) Compound F3 was tested in vivo, using cell line xenograft tumors in NRG mice. Cell lines used included Mia-Paca-2 (Pancreatic cancer), and NCI-H441 (Lung cancer). […] The results for Mia-Paca-2 are shown in FIG. 14 and FIG. 15 ([…] treated with DMSO/PBS (carrier) or F3 drug at 12 mg/kg every three days).

Another data set relates to HL-60. Put plainly: Suspension culture growth, HL-60. It counts as cell-based. As to conditions: HL-60, NRASQ61L, AML. On the procedure:
(§2) The compounds synthesized were tested in the 3-D soft agar drug screening, including F3, JAB-6-176 and JAB-8-60. All the compounds tested suppressed 3-D soft agar growth, but had little effect on normal 2-D growth. […] In Table 2, below, are listed different cell lines, with the results of testing F3 in the “REMARKS” column. All the cell lines are common and publicly available from the ATCC repository (www.atcc.org/en/Products/Cells_and_Microorganisms/Cell_Lines.aspx). NF1 mute are cells with defects in the NF1 gene (a negative regulator of RAS) causing hyper-activation of the wild type form of RAS. The same is true for DAB2IP deficient cells. EGFR+++ cells overexpress the EGFR receptor, which also results in the hyper-activation of wild type RAS,

A further data set has as its system MDA-MB-231. Briefly: 3-D soft agar drug screening, MDA-MB-231. As to conditions: MDA-MB-231, Kras13D and deficient for NF1, Breast; cells don't grow well in soft agar. It counts as cell-based. As for the experimental part: (§3) The technical process of 3-D culture involves preparing molten agar at 1.6% in culture medium and adding serum to 10%. 1 ml of this agar medium is plated per well in a 12 well plate and allowed to set. This is the bottom agar and prevents any cells added to the well from touching the plastic bottom of the plate, ensuring everything remains suspended. Meanwhile the remaining stock of agar medium is kept at 42° C. to prevent setting. Target cells are then trypsinized into a single cell suspension and mixed with normal medium/drug combination. ⅔ volume molten agar medium is then added and the mixture plated onto the bottom agar. The agar/medium sets as it cools, suspending the cells in a 3D environment. Typically, within 2 weeks, tumor spheres (colonies) will form suspended in the agar. The number of colonies, or even the size, may be counted under an inverted microscope and quantified to assay tumor sphere inhibition.
(§4) The compounds synthesized were tested in the 3-D soft agar drug screening, including F3, JAB-6-176 and JAB-8-60. All the compounds tested suppressed 3-D soft agar growth, but had little effect on normal 2-D growth. […] In Table 2, below, are listed different cell lines, with the results of testing F3 in the “REMARKS” column. All the cell lines are common and publicly available from the ATCC repository (www.atcc.org/en/Products/Cells_and_Microorganisms/Cell_Lines.aspx). […]

The target in data set [2] is recombinant K-RAS12v protein (Homo sapiens, UniProt P01116, G12V). Put plainly: Thermofluor direct binding assay. The settings on record: for Thermofluor curve shift (direct binding): 200 uM compound/5 uM protein, K-RAS12v loaded with gamma GTPS. On the procedure:
Direct binding of F3/F3a derivative to recombinant K-RAS protein. Thermofluor assays were performed to assay whether direct interactions could be detected between recombinant K-RAS protein and compound F3, or recombinant K-RAS protein and compound JAB-6-5. Recombinant K-RAS12v protein was loaded with gamma GTPS and used in binding assays with a ratio of: 200 uM compound/5 uM protein. Control compound C4 is targeted at a different protein and was not expected to bind RAS. The results are the derivative of three assays performed in triplicate. […] A predicted kD can be extrapolated from the curve: ˜25 uM at 55.5° C.
(In general: In DSF a fluorescence change marks the thermal transition of the protein.)

A further data set concerns Mia-Paca-2 cells. Briefly: Anoikis assay on polyHEMA treated wells, trypan blue exclusion. The class given is cell-based. The settings on record: after 48 hours. On the procedure: RAS activation leads to resistance to anoikis and inhibiting RAS function re-sensitizes […] cells to anoikis. The RAS/RalGDS pathway has been implicated as a significant component of RAS mediated anoikis suppression. […] After 48 hours the cultures were assayed for cell death by trypan blue exclusion.

For another data set, the system named is HTB-185. Put plainly: 3-D soft agar drug screening, HTB-185. It counts as cell-based. The settings on record: HTB-185, DAB2IP deficient, Medulloblastoma. As for the experimental part:
as §3, §4

The next data set relates to A375. Put plainly: 3-D soft agar drug screening, A375. It counts as cell-based. The settings on record: A375, B-RAF mute, melanoma; 2 uM. On the procedure:
as §3, §4

In the next data set the test system is A549. Briefly: 3-D soft agar drug screening, A549. It counts as cell-based. The settings on record: A549, K12S, Lung. On the procedure:
as §3, §4

Another data set relates to Mia-Paca-2. Briefly: 3-D soft agar drug screening, Mia-Paca-2. The class given is cell-based. The settings on record: Mia-Paca-2, K12C, Pancreatic. On the procedure: as §3, §4
Data set [3] concerns A549 K-RAS driven lung tumor cell line. Briefly: Normal growth/survival in 2-D culture on plastic, A549. It counts as cell-based. The settings on record: 10 uM. As for the experimental part: (§5) Effects of the small molecule on growth in soft agar of A549 K-RAS driven lung tumor cell line and K-RAS driven pancreatic cancer cell line MiaPaCa-2 is shown. 0=carrier (DMSO). P values are less than 0.05, FIG. 5 and FIG. 6 show the effects of 10 uM of F3 on normal growth/survival in 2-D culture on plastic of the same cells. […] FIG. 7 is a graph showing that F3 is also effective against wild-type driven tumor cells, while FIG. 8 is a graph showing normal growth/survival in 2-D culture on plastic of the same cells.

Another data set deals with SK-RC-45. Put plainly: 3-D soft agar drug screening, SK-RC-45. The class given is cell-based. The settings on record: SK-RC-45, EGFR++++, kidney. As for the experimental part: as §3, §4
Data set [4] relates to K-RAS driven pancreatic cancer cell line MiaPaCa-2. Put plainly: Normal growth/survival in 2-D culture on plastic, MiaPaCa-2. The class given is cell-based. As to conditions: 10 uM. On the procedure: as §5
The nature of data set [5]: Preliminary in vivo toxicity assay. Also on record: species or system NRG mice. As to conditions: i.p. 10 mg/kg every other day for 2 weeks. On the procedure:
A preliminary in vivo toxicity assay was performed on F3. NRG mice were i.p. injected with 10 mg/kg of drug every other day for 2 weeks.

Data set [6] in a line: Normal 2-D growth (cell line not stated). It counts as cell-based. As for the experimental part: as §2
Another data set deals with H1299. Briefly: 3-D soft agar drug screening, H1299. As to conditions: H1299, Hras61, Lung. It counts as cell-based. On the procedure: as §3, §4
Another data set has as its system Panc-1. Put plainly: 3-D soft agar drug screening, Panc-1. The class given is cell-based. The settings on record: Panc-1, K12D, pancreatic. As for the experimental part: as §3, §4
The next data set concerns CaoV3. Briefly: 3-D soft agar drug screening, CaoV3. The class given is cell-based. The settings on record: CaoV3, NF1mute, ovarian. As for the experimental part:
as §3, §4

The next data set has as its system S462.TY. Briefly: 3-D soft agar drug screening, S462.TY. The class given is cell-based. The settings on record: NF1-mute, MPNST. On the procedure:
as §3, §4

Another data set has as its system tumor cells. Briefly: 3-D soft agar drug screening (cell line not stated). The class given is cell-based. As for the experimental part: as §3, §4
Data set [7] relates to wild-type RAS driven tumor cells. Briefly: Soft agar growth of wild-type RAS driven tumor cells. It counts as cell-based. As for the experimental part:
as §5

The subject of data set [8] is NCI-H441 (Lung cancer) xenograft tumors. Briefly: Tumor inhibition of xenografts, NCI-H441. The class given is in vivo. The settings on record: NCI-H441 xenograft in NRG mice. As for the experimental part: as §1

Sequence of recombinant K-RAS12v protein (P01116 1-185 isoform P01116-2 G12V): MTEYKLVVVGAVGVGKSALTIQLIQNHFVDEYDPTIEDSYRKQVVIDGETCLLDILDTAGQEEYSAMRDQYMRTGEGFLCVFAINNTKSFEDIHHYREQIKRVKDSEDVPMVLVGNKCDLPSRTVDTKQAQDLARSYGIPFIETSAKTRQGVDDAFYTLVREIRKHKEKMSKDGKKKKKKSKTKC

As for `Cc1ccc(NC(=O)CN(C)CC(=O)Nc2cccc(F)c2)cc1S(=O)(=O)N1CCCCCC1` [Compound F3, N-(3-(Azepan-1-ylsulfonyl)-4-methylphenyl)-2-((2-((3-fluorophenyl)amino)-2-oxoethyl)(methyl)amino)-acetamide], the “tumor volume as compared to controls” value was “approximately half the volume” in data set [1] and “reduction in tumor volume” in data set [8]. Further, the Growth in suspension entry in the data set with HL-60 is listed as “inhibited”. Besides, the Soft agar growth result is “inhibited” in the data set with MDA-MB-231; “Soft agar growth inhibited” with HTB-185; 10 uM, no effect at 2 uM with A375; “specific inhibition; also recorded: Soft agar growth inhibited” in the data set on A549; “specific inhibition; also recorded: Soft agar growth inhibited” with Mia-Paca-2; “Soft agar growth inhibited” in the data set with SK-RC-45. Also, the Soft agar growth entry in the data set with H1299, in the data set with Panc-1, in the data set on CaoV3 and in the data set on S462.TY was “Soft agar growth inhibited” each time. Besides, the “Thermofluor curve shift (direct binding)” value in [2] is recorded as “significant curve shift”. Also, in data set [2] (at 55.5° C., read-out: predicted kD extrapolated from the curve), the Kd was around 25 µM. Besides, the “anoikis (cell death by trypan blue exclusion)” value in the data set on Mia-Paca-2 cells was “induced high levels of anoikis”. In addition, the “cell growth in 2-D culture on plastic” value in [3] and in data set [4] was “no effect” each time. Besides, the “signs of pain or distress” value in [5] is given as “No obvious signs of pain or distress”. For the same compound, the weight loss entry in data set [5] is given as “no weight loss”. Besides, the “normal 2-D growth” value in [6] was “little effect”. Further, the “3-D soft agar growth” value in the data set with tumor cells is given as “suppressed”. In [7], the “Effect against wild-type driven tumor cells” value is given as “effective”.
Take `Cc1ccc(NC(=O)CN(C)CC(=O)Nc2cccc(F)c2)cc1S(=O)(=O)N1CCCC1` [JAB-6-5]: the “Thermofluor curve shift (direct binding)” value in data set [2] is on record as “significant curve shift”.
Regarding `CCCc1ccc(NC(=O)CN(C)CC(=O)Nc2cccc(F)c2)cc1S(=O)(=O)N1CCCCCC1` [JAB-6-176], the “normal 2-D growth” value in data set [6] is on record as “little effect”. The “3-D soft agar growth” value in the data set on tumor cells is recorded as “suppressed”.
